Holding throughout (set-up): species or system rat (male albino)
Data set [1] concerns 5-hydroxyindole acetic acid (5HIAA). The experiment in a line: whole brain 5-hydroxyindoleacetic acid (5HIAA) concentration in vivo in rats. The method, then:
In another experiment certain compounds of the Examples were evaluated to determine ability to affect the 5-hydroxyindoles serotonin and 5-hydroxyindole acetic acid (5HIAA), and serum corticosterone, in vivo. Male albino rats were injected subcutaneously with an aqueous solution of the compound. The pH of the solution was adjusted as necessary to solubilize the compound. A control of the solution without the test compound was similarly injected into a control animal. […] Trunk blood was collected and allowed to clot. After centrifugation, serum was stored frozen prior to analysis. The whole brain was removed and frozen on dry ice for storage prior to analysis. The serum corticosterone concentration was measured spectrofluorometrically using the procedure of Solem and Brinck-Johnson, "An Evaluation of a Method for Determination of Free Corticosteroids in Minute Quantities of Mouse Plasma", Scand. J. Clin. Lab. Invest., Suppl. 80, p. 1-14 (1965), incorporated herein by reference. 5-Hydroxyindoleacetic acid (5HIAA) concentration in whole brain was measured by liquid chromatography with electrochemical detection as reported by Fuller and Perry, "Effects of Buspirone and its Metabolite, 1-(2-pyrimidinyl)piperazine, on Brain Monoamines and Their Metabolites in Rats", J. Pharmacol. Exp. Ther., 248, p. 50-56 (1989), incorporated herein by reference.

A further data set deals with rats. The experiment in a line: death of treated rats in the in vivo 5-hydroxyindole/corticosterone experiment. The following applies: 3 mg/kg s.c. The method, then: In another experiment certain compounds of the Examples were evaluated to determine ability to affect the 5-hydroxyindoles serotonin and 5-hydroxyindole acetic acid (5HIAA), and serum corticosterone, in vivo. Male albino rats were injected subcutaneously with an aqueous solution of the compound. The pH of the solution was adjusted as necessary to solubilize the compound. A control of the solution without the test compound was similarly injected into a control animal. The rats were decapitated one hour later. Trunk blood was collected and allowed to clot. After centrifugation, serum was stored frozen prior to analysis. The whole brain was removed and frozen on dry ice for storage prior to analysis. The serum corticosterone concentration was measured spectrofluorometrically using the procedure of Solem and Brinck-Johnson, "An Evaluation of a Method for Determination of Free Corticosteroids in Minute Quantities of Mouse Plasma", Scand. J. Clin. Lab. Invest., Suppl. 80, p. 1-14 (1965), incorporated herein by reference. 5-Hydroxyindoleacetic acid (5HIAA) concentration in whole brain was measured by liquid chromatography with electrochemical detection as reported by Fuller and Perry, "Effects of Buspirone and its Metabolite, 1-(2-pyrimidinyl)piperazine, on Brain Monoamines and Their Metabolites in Rats", J. Pharmacol. Exp. Ther., 248, p. 50-56 (1989), incorporated herein by reference.

In another data set the test system is serotonin. Briefly: whole brain serotonin concentration in vivo in rats. The following applies: 5 hrs before sacrifice.
Where [2] appears, read: 0.0003 mg/kg s.c., 1 hour, series 0.0003-0.03 mg/kg.
Where [3] appears, read: 0.003 mg/kg s.c., 1 hour, series 0.0003-0.03 mg/kg.
[4] abbreviates: 0.03 mg/kg s.c., 1 hour, series 0.0003-0.03 mg/kg.
The mark [5] stands for this setting: 0.03 mg/kg s.c., 1 hour, series 0.03-3 mg/kg.
Setting [6] is: 0.3 mg/kg s.c., 1 hour, series 0.03-3 mg/kg.
[7] abbreviates: 3 mg/kg s.c., 1 hour, series 0.03-3 mg/kg.

Structures are written as SMILES.

With `CCCN(CCC)[C@H]1Cc2c[nH]c3ccc(C(=O)C(C)C)c(c23)C1` [Example 9, (4R)-(+)-6-(2-methylpropanoyl)-4-(di-n-propylamino)-1,3,4,5-tetrahydrobenz[cd]indole], the 5HIAA in data set [1] (setting [2]) is 2.44 ± 0.06 nmol/g; in data set [1] (setting [3]) it was 2.23 ± 0.09 nmol/g; in data set [1] (setting [4]), 1.82 ± 0.08 nmol/g; in data set [1] (setting [5]), 1.38 ± 0.02 nmol/g; in data set [1] (setting [6]), 1.22 ± 0.04 nmol/g; in data set [1] (setting [7]), 1.38 ± 0.08 nmol/g.

Consider `CCCN(CCC)[C@H]1Cc2c[nH]c3ccc(C(C)=O)c(c23)C1` [Example 7, (4R)-(+)-6-acetyl-4-(di-n-propylamino)-1,3,4,5-tetrahydrobenz[cd]indole], for which the 5HIAA was determined as 1.93 ± 0.07 nmol/g in data set [1] (setting [2]); 1.80 ± 0.05 nmol/g in data set [1] (setting [3]); 1.34 ± 0.07 nmol/g in data set [1] (setting [4]); 1.43 ± 0.02 nmol/g in data set [1] (setting [5]); 1.37 ± 0.07 nmol/g in data set [1] (setting [6]). For the same molecule, the “death of treated rats” value in the data set on rats was “dead within one hour”.

For the molecule `CCCN(CCC)C1Cc2c[nH]c3ccc(C(C)=O)c(c23)C1` (racemic) [Example 2, (±)-6-Acetyl-4-(di-n-propylamino)-1,3,4,5-tetrahydrobenz[cd]indole], the 5HIAA came to 2.21 ± 0.05 nmol/g in data set [1] (setting [2]); 1.79 ± 0.10 nmol/g in data set [1] (setting [3]); 1.95 ± 0.04 nmol/g in data set [1] (setting [4]); 1.27 ± 0.01 nmol/g in data set [1] (setting [5]); 1.10 ± 0.06 nmol/g in data set [1] (setting [6]); 2.04 ± 0.02 nmol/g in data set [1] (setting [7]).

As to `CCCN(CCC)[C@@H]1Cc2c[nH]c3ccc(C(C)=O)c(c23)C1` [Example 8, (4S)-(-)-6-acetyl-4-(di-n-propylamino)-1,3,4,5-tetrahydrobenz[cd]indole], the 5HIAA in data set [1] (setting [2]) worked out at 1.91 ± 0.08 nmol/g; in data set [1] (setting [3]), 1.47 ± 0.04 nmol/g; in data set [1] (setting [4]) it was 1.59 ± 0.10 nmol/g; in data set [1] (setting [5]), 1.31 ± 0.06 nmol/g; in data set [1] (0.1 mg/kg orally, 5 hrs before sacrifice), 1.67 ± 0.04 nmol/g; in data set [1] (0.3 mg/kg orally, 5 hrs before sacrifice), 1.60 ± 0.07 nmol/g. Besides, the 5HIAA in data set [1] (setting [6]) is 1.36 ± 0.04 nmol/g; in data set [1] (1 mg/kg orally, 5 hrs before sacrifice), 1.74 ± 0.05 nmol/g; in data set [1] (3 mg/kg orally, 5 hrs before sacrifice) it was 1.31 ± 0.08 nmol/g; in data set [1] (setting [7]), 1.35 ± 0.04 nmol/g. Besides, the Serotonin is 2.77 ± 0.07 nmol/g with serotonin (0.1 mg/kg orally), 2.47 ± 0.07 nmol/g in the data set with serotonin (0.3 mg/kg orally), 2.86 ± 0.07 nmol/g in the data set on serotonin (1 mg/kg orally) and 2.68 ± 0.11 nmol/g in the data set with serotonin (3 mg/kg orally).

The values are drawn from US5229409A, “6-substituted-tetrahydrobenz[cd]indoles” (Eli Lilly and Company, priority 1991, dated 1993).
